Assay results from ChEMBL document CHEMBL1201862, “PubChem BioAssay data set” (2004).
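Briefly, cells in 96-well plates were exposed to five compound concentrations for 48 h, and endpoints were estimated by linear interpolation. Here, GI50 denotes the concentration required for 50% inhibition of growth.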 Calls of active or inactive are those of the source. Cut-off read from the data, not from the text of the source: active = GI50 up to about 1.1 µM and inactive = higher.

How the values were obtained:
Test in all cases: NCI-60 cell line screen, 48 h
U-251 = test system: U-251
MCF7 = test system: MCF7
TK-10 = test system: TK-10
K562 = test system: K562
OVCAR-3 = test system: OVCAR-3
SK-MEL-2 = test system: SK-MEL-2
BT-549 = test system: BT-549
MDA-MB-231 = test system: MDA-MB-231
COLO 205 = test system: COLO 205
SK-MEL-5 = test system: SK-MEL-5
SNB-19 = test system: SNB-19
MOLT-4 = test system: MOLT-4
OVCAR-8 = test system: OVCAR-8
A549 = test system: A549
786-0 = test system: 786-0
UACC-257 = test system: UACC-257
NCI/ADR-RES = test system: NCI/ADR-RES
M14 = test system: M14
MDA-MB-435 = test system: MDA-MB-435
LOX IMVI = test system: LOX IMVI

Structure (SMILES)	GI50 (U-251)	GI50 (MCF7)	GI50 (TK-10)	GI50 (K562)	GI50 (OVCAR-3)	GI50 (SK-MEL-2)	GI50 (BT-549)	GI50 (MDA-MB-231)	GI50 (COLO 205)	GI50 (SK-MEL-5)	GI50 (SNB-19)	GI50 (MOLT-4)	GI50 (OVCAR-8)	GI50 (A549)	GI50 (786-0)	GI50 (UACC-257)	GI50 (NCI/ADR-RES)	GI50 (M14)	GI50 (MDA-MB-435)	GI50 (LOX IMVI)
COc1cc2c[n+](C)c3c4ccccc4ccc3c2cc1OC	0.726 µM (active)	3.66 µM (inactive)	26.7 µM (inactive)	1.4 µM (inactive)	6.05 µM (inactive)	5.69 µM (inactive)	2.92 µM (inactive)	5.05 µM (inactive)	0.991 µM (active)	2.87 µM (inactive)	2.44 µM (inactive)	0.422 µM (active)	2.71 µM (inactive)	0.845 µM (active)	8.65 µM (inactive)	3.73 µM (inactive)	> 100 µM (inactive)	18.1 µM (inactive)	3.83 µM (inactive)	12.9 µM (inactive)
S=C1Cc2c(-c3ccc(Cl)cc3)cc(-c3ccccc3)nc2-c2ccccc2N1	4.03 µM (inactive)	17.1 µM (inactive)	12.3 µM (inactive)	> 100 µM (inactive)	13 µM (inactive)	17.7 µM (inactive)	16.6 µM (inactive)	7.8 µM (inactive)	16 µM (inactive)	16 µM (inactive)	4.5 µM (inactive)	28.7 µM (inactive)	2.86 µM (inactive)	8.73 µM (inactive)	5.97 µM (inactive)	14.1 µM (inactive)	12.7 µM (inactive)	12.8 µM (inactive)	15 µM (inactive)	13.9 µM (inactive)
CCN(CC)c1nc(N(C)C)c2cc(OC)ccc2n1	27.5 µM (inactive)	22.2 µM (inactive)	34.4 µM (inactive)	20.8 µM (inactive)	35.6 µM (inactive)	36.6 µM (inactive)	56.4 µM (inactive)	35.5 µM (inactive)	11.7 µM (inactive)	17.4 µM (inactive)	48.6 µM (inactive)	18.5 µM (inactive)	26.2 µM (inactive)	27.9 µM (inactive)	20.7 µM (inactive)	24.7 µM (inactive)	24.1 µM (inactive)	22.7 µM (inactive)	30.1 µM (inactive)	26.8 µM (inactive)
CC(C)(O)c1cc2c(cc1C(C)(C)O)-c1ccccc1-2	> 100 µM (inactive)	> 100 µM (inactive)	> 100 µM (inactive)	> 100 µM (inactive)	> 100 µM (inactive)	> 100 µM (inactive)	> 100 µM (inactive)	> 100 µM (inactive)	> 100 µM (inactive)	> 100 µM (inactive)	> 100 µM (inactive)	> 100 µM (inactive)	> 100 µM (inactive)	> 100 µM (inactive)	79.8 µM (inactive)	> 100 µM (inactive)	> 100 µM (inactive)	> 100 µM (inactive)	> 100 µM (inactive)	> 100 µM (inactive)
COc1cc(-c2cn(S(=O)(=O)c3ccc(C)cc3)c3ccccc23)nc(-c2cn(S(=O)(=O)c3ccc(C)cc3)c3ccccc23)n1	0.354 µM (active)	0.395 µM (active)	8.22 µM (inactive)	0.373 µM (active)	0.586 µM (active)	0.984 µM (active)	4.85 µM (inactive)	0.933 µM (active)	0.745 µM (active)	0.566 µM (active)	0.54 µM (active)	0.69 µM (active)	0.94 µM (active)	0.473 µM (active)	1.35 µM (inactive)	52.5 µM (inactive)	0.746 µM (active)	0.478 µM (active)	0.18 µM (active)	0.6 µM (active)
COc1ccc2c(CCN)c(C(=O)O)[nH]c2c1	> 100 µM (inactive)	> 100 µM (inactive)	> 100 µM (inactive)	> 24.5 µM (inactive)	> 100 µM (inactive)	> 100 µM (inactive)	> 100 µM (inactive)	> 100 µM (inactive)	> 100 µM (inactive)	> 100 µM (inactive)	> 100 µM (inactive)	1 µM (active)	> 100 µM (inactive)	> 100 µM (inactive)	> 100 µM (inactive)	> 100 µM (inactive)	> 100 µM (inactive)	> 100 µM (inactive)	> 100 µM (inactive)	> 100 µM (inactive)
Cc1ccc(/C=C2\Sc3scc(-c4ccccc4)[n+]3C2=O)cc1	16.2 µM (inactive)	37.5 µM (inactive)	19.8 µM (inactive)	12.3 µM (inactive)	31.4 µM (inactive)	24.1 µM (inactive)	17.4 µM (inactive)	17.5 µM (inactive)	20.7 µM (inactive)	21.6 µM (inactive)	24.5 µM (inactive)	30.1 µM (inactive)	22.4 µM (inactive)	25.1 µM (inactive)	22.3 µM (inactive)	22.8 µM (inactive)	19.5 µM (inactive)	23.8 µM (inactive)	9.27 µM (inactive)	20.6 µM (inactive)
